Assay [1] relates to Ii processing in HOM2 cells. Nature of the assay: 35S pulse/chase of HOM2 cells, Tu36 immunoprecipitation, SDS-PAGE: Ii processing and SDS-stable class II peptide complexes. Conditions: E64D. Format: cell-based, human. The text has this: Lysates were precleared with protein A-agarose.
Samples were eluted with SDS-PAGE sample buffer.

A further assay has as its target cathepsin D (Homo sapiens, UniProt P07339). Conditions: Alteri et al. 1993; cited from earlier work.
Another assay deals with cathepsin S (Homo sapiens, UniProt P25774). The assay can be described thus: Active site labeling of cysteine proteases with Cbz-[125I]-Tyr-Ala-CN2 in HOM2 cells: cathepsin S. Format: cell-based.
A further assay addresses T1, human cathepsin H (Homo sapiens, UniProt P09668).
T1 construct: purchased Calbiochem-Novabiochem Corp., San Diego, Calif
T1 sequence (P09668 98-335): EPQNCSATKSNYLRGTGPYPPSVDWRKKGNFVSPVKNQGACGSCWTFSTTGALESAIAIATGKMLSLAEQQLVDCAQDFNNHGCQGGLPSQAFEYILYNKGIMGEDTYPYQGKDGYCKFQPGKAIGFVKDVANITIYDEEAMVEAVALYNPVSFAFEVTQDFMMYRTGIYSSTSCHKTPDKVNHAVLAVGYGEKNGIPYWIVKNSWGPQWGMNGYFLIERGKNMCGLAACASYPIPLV
Nature of the assay: Inhibition of purified human cathepsin H. The assay is classed as biochemical. Conditions: purified enzyme. The text has this: Purified human cathepsin H (obtained from Calbiochem-Novabiochem Corp., San Diego, Calif.) was not inhibited with LHVS nor did it display any proteolytic activity against immunoprecipitated αβIi, implying that cathepsin H is not an essential protease for Ii degradation.

For another assay, the target named is cathepsin B (Homo sapiens, UniProt P07858). The assay can be described thus: Active site labeling of cysteine proteases with Cbz-[125I]-Tyr-Ala-CN2 in HOM2 cells: cathepsin B. Format: cell-based. An excerpt: SIDS, 1% Triton X-100 on ice.
In assay [2] the test system is Ii processing in HOM2 cells. Conditions: leupeptin; Neefjes and Ploegh 1992; cited from earlier work.
The next assay deals with multiple sclerosis. Nature of the assay: Treating multiple sclerosis in a human. Conditions: intravenous injection once a day, 500 mg/70 kg body weight.
The next assay relates to pemphigus vulgaris. Nature of the assay: Treating pemphigus vulgaris in a human. The assay is classed as in vivo. Conditions: topical ointment 50 mg/gm, daily. As to the method:
The dose is 50 mg/gm of ointment and is applied daily to the affected area.

Chain of cathepsin S (P25774 115-331): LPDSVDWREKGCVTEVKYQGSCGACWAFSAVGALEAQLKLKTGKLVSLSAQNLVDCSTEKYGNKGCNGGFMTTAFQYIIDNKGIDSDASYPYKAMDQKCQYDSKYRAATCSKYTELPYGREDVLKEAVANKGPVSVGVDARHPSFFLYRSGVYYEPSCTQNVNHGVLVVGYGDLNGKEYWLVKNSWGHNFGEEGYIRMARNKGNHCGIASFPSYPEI
Chain of cathepsin D (P07339 65-412, species assumed): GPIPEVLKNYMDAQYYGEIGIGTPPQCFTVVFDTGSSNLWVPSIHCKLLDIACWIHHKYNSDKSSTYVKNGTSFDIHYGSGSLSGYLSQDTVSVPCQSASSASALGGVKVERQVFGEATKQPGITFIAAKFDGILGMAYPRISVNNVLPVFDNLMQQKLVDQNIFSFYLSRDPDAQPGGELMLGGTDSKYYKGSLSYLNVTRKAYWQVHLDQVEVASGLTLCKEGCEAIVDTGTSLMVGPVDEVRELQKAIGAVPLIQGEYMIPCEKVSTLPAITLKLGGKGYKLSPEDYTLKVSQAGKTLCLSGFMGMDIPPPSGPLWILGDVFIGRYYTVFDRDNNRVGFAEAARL

With `CCOC(=O)[C@H]1O[C@@H]1C(=O)N[C@@H](CC(C)C)C(=O)NCCC(C)C` (relative stereo) [E64D], the SDS-stable dimer formation entry in assay [1] was “decrease in SDS-stable dimer formation”. Take `CC(C)[C@H](NC(=O)[C@H](Cc1ccccc1)C[C@H](O)[C@H](Cc1ccccc1)NC(=O)OC(C)(C)C)C(=O)N[C@@H](Cc1ccccc1)C(=O)N1CCOCC1` [CGP 53437]: at cathepsin D, the “inhibits cathepsin D (potency range)” value is “nanomolar range”. Turning to `CC(C)C[C@H](NC(=O)N1CCOCC1)C(=O)N[C@H](/C=C/S(=O)(=O)c1ccccc1)CCc1ccccc1` [LHVS, morpholinurea-leucine-homophenylalanine-vinylsulfone phenyl], the “concentrations that specifically inhibit cathepsin S, leaving other cysteine proteases functionally active” value at cathepsin S is 1 to 5 nM. At cathepsin S (LHVS 1 nM, 1 hour preincubation at 37° C.), the “labeling of cathepsin S with Cbz-[125I]-Tyr-Ala-CN2” value was “effectively inhibited”. At human cathepsin H, the “inhibition of purified human cathepsin H” value was “not inhibited”. Moreover, the “labeling of cathepsin B with Cbz-[125I]-Tyr-Ala-CN2” value at cathepsin B (LHVS 1 nM) is “but not cathepsin B”; at cathepsin B (LHVS 5 nM), “decreased, although some activity remained”. Turning to `CC(=O)N[C@@H](CC(C)C)C(=O)N[C@@H](CC(C)C)C(=O)N[C@H](C=O)CCCNC(=N)N` [leupeptin], in assay [2], the “SDS-stable complexes (peptide-loaded αβ-dimers)” value was “decrease”.

In the case of Leu-Arg-Met-vinylsulfone, the “effect on multiple sclerosis” value in the assay on multiple sclerosis is “alleviates the effects of multiple sclerosis”. Turning to N-(carboxybenzyl)-Arg-Met-vinylsulfone, in the assay with pemphigus vulgaris, the “effect on pemphigus vulgaris” value is “alleviates the effects of pemphigus vulgaris”.

(Values after US7427591B2, “Suppression of immune response via inhibition of cathepsin S” (Massachusetts Institute of Technology, priority 1996, dated 2008).)
